Data published in the SangsterLogP compilation.

test: method code SF-AS, from DOI: 10.1016/s0021-9673(00)82338-9; settings: pH 9.0

Row | Compound | logD
1 | Cn1c([N+](=O)[O-])cnc1C1CC1 | 1
2 | CN1CCN(Cc2ncc([N+](=O)[O-])n2C)CC1 | -0.32
3 | Cc1ncc([N+](=O)[O-])n1CC(=O)N1C=CN(C(=O)Cn2c([N+](=O)[O-])cnc2C)C=C1 | -0.7
4 | Cn1c([N+](=O)[O-])cnc1C=O | -0.69
5 | Cn1c([N+](=O)[O-])cnc1COC(N)=O | -0.38
6 | O=[N+]([O-])c1cnc(C=Cc2ccc3c(c2)OCO3)n1CCO | 2.03
7 | Cn1c([N+](=O)[O-])cnc1CO | -0.03
8 | O=[N+]([O-])c1cncn1CCN1CCOCC1 | 0.07
9 | Cc1ncc([N+](=O)[O-])n1CC(O)Cn1c([N+](=O)[O-])cnc1C | 0.31
